Experimental data as given in patent US9346815B2, “5-chloro-2-difluoromethoxyphenyl pyrazolopyrimidine compounds, compositions and methods of use thereof” (Genentech, Inc., priority 2014, dated 2016).

Key:
[1] = system: JAK1-dependent STAT6 phosphorylation downstream of IL-13 stimulation in BEAS-2B human bronchial epithelial cells; test: JAK1 pathway assay in BEAS-2B cells (IL-13-pSTAT6, MSD); format: cell-based; settings: read-out: IL13-pSTAT6 EC50 (uM)_BEAS-2B
Procedure: JAK1 Pathway Assay in Cell Lines was Carried Out as Follows:
Inhibitor potency (EC50) was determined in cell-based assays designed to measure JAK1 dependent STAT phosphorylation.
In one assay approach, TF-1 human erythroleukemia cells obtained from the American Type Culture Collection (ATCC; Manassas, Va.) were used to measure JAK1-dependent STAT6 phosphorylation downstream of IL-13 stimulation. Prior to use in the assays, TF-1 cells were starved of GM-CSF overnight in OptiMEM medium (Life Technologies, Grand Island, N.Y.) supplemented with 0.5% charcoal/dextran stripped fetal bovine serum (FBS), 0.1 mM non-essential amino acids (NEAA), and 1 mM sodium pyruvate. The assays were run in 384-well plates in serum-free OptiMEM medium using 300,000 cells per well. In a second assay approach, BEAS-2B human bronchial epithelial cells obtained from ATCC were plated at 100,000 cells per well of a 96-well plate one day prior to the experiment. The BEAS-2B assay was run in complete growth medium (bronchial epithelial basal medium plus bulletkit; Lonza; Basel, Switzerland).
Test compounds were serially diluted 1:2 in DMSO and then diluted 1:50 in medium just before use. Diluted compounds were added to the cells, for a final DMSO concentration of 0.2%, and incubated for 30 min (for the TF-1 assay) or 1 hr (for the BEAS-2B assay) at 37° C. Then, cells were stimulated with human recombinant cytokine at their respective EC90 concentrations, as previously determined for each individual lot. Cells were stimulated with IL-13 (R&D Systems, Minneapolis, Minn.) for 15 min at 37° C. The TF-1 cell reactions were stopped by the direct addition of 10× lysis buffer (Cell Signaling Technologies, Danvers, Mass.), whereas the BEAS-2B cell incubations were halted by the removal of medium and addition of 1× lysis buffer. The resultant samples were frozen in the plates at −80° C. Compound mediated inhibition of STAT6 phosphorylation was measured in the cell lysates using MesoScale Discovery (MSD) technology (Gaithersburg, Md.).

[2] = target: isolated recombinant JAK1 kinase domain (Homo sapiens (Human), UniProt P23458); test: JAK1 enzyme assay (Caliper LabChip, peptide phosphorylation); format: biochemical; settings: isolated recombinant JAK1 kinase domain, 25 μM ATP
[3] = target: isolated recombinant JAK2 kinase domain (Homo sapiens (Human), UniProt O60674); test: JAK2 enzyme assay (Caliper LabChip, peptide phosphorylation); format: biochemical; settings: 25 μM ATP
[4] = system: JAK1-dependent STAT6 phosphorylation downstream of IL-13 stimulation in TF-1 human erythroleukemia cells; test: JAK1 pathway assay in TF-1 cells (IL-13-pSTAT6, MSD); format: cell-based; settings: Homo sapiens, TF-1, TF-1 cells, read-out: IL13-pSTAT6 EC50_TF-1
How it was run: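 Cells were preincubated with compounds (0.2% DMSO) for 30 min (TF-1, GM-CSF-starved overnight, serum-free OptiMEM, 300,000 cells/well) or 1 h (BEAS-2B, complete medium, 100,000 cells/well) at 37 °C.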

Sequence of isolated recombinant JAK2 kinase domain (O60674 849-1124): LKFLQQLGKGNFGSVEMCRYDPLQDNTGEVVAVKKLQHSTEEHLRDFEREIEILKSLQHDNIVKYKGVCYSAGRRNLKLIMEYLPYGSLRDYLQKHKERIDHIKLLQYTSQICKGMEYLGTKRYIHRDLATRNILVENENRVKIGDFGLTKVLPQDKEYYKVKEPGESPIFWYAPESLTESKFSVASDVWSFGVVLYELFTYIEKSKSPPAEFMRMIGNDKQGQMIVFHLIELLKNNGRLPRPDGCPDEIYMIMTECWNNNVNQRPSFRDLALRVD
Sequence of isolated recombinant JAK1 kinase domain (P23458 875-1153): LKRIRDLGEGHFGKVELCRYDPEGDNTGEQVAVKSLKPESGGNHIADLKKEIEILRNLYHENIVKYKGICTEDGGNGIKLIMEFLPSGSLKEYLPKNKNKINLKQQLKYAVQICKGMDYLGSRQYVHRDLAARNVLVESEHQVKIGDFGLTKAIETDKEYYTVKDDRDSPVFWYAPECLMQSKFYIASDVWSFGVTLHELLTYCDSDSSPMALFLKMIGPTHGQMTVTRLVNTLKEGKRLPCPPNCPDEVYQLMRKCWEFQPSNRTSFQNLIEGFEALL

| Structure (SMILES) | EC50 [1] | Ki [2] | Ki [3] | EC50 [4] |
| --- | --- | --- | --- | --- |
| O=C(Nc1cn([C@H]2CNCC[C@@H]2O)nc1-c1cc(Cl)ccc1OC(F)F)c1cnn2cccnc12 [Example 361, N-[3-[5-chloro-2-(difluoromethoxy)phenyl]-1-[(3S,4S)-4-hydroxypiperidin-3-yl]-1H-pyrazol-4-yl]pyrazolo[1,5-a]pyrimidine-3-carboxamide] | 0.0273 µM |  |  |  |
| O=C(Nc1cn(CC(=O)N2CCC(N3CC[S+]([O-])CC3)CC2)nc1-c1cc(Cl)ccc1OC(F)F)c1cnn2cccnc12 [Example 443] | 0.0663 µM |  |  |  |
| O=C(Nc1cn([C@@H]2CNCC[C@H]2O)nc1-c1cc(Cl)ccc1OC(F)F)c1cnn2cccnc12 [Example 360, N-[3-[5-chloro-2-(difluoromethoxy)phenyl]-1-[(3R,4R)-4-hydroxypiperidin-3-yl]-1H-pyrazol-4-yl]pyrazolo[1,5-a]pyrimidine-3-carboxamide] | 0.0366 µM |  |  |  |
| O=C(CCCN1CCC(n2cc(NC(=O)c3cnn4cccnc34)c(-c3cc(Cl)ccc3OC(F)F)n2)CC1)NC1COC1 [Example 153, N-[3-[5-chloro-2-(difluoromethoxy)phenyl]-1-[1-[4-(oxetan-3-ylamino)-4-oxo-butyl]-4-piperidyl]pyrazol-4-yl]pyrazolo[1,5-a]pyrimidine-3-carboxamide] |  | 1.55 nM | 0.27 nM | 36.5 nM |
| CN(C)C1CCN(C(=O)c2nc(-c3cc(Cl)ccc3OC(F)F)c(NC(=O)c3cnn4cccnc34)s2)CC1 [Example 265, N-[4-[5-chloro-2-(difluoromethoxy)phenyl]-2-[4-(dimethylamino)piperidine-1-carbonyl]thiazol-5-yl]pyrazolo[1,5-a]pyrimidine-3-carboxamide] |  | 3.63 nM | 4.29 nM | 22.8 nM |
| CN1CC[C@H]2CN(C(=O)Cn3cc(NC(=O)c4cnn5cccnc45)c(-c4cc(Cl)ccc4OC(F)F)n3)C[C@H]2C1 [Example 53, N-[1-[2-[(3aR,7aR)-5-methyl-3,3a,4,6,7,7a-hexahydro-1H-pyrrolo[3,4-c]pyridin-2-yl]-2-oxo-ethyl]-3-[5-chloro-2-(difluoromethoxy)phenyl]pyrazol-4-yl]pyrazolo[1,5-a]pyrimidine-3-carboxamide] |  | 0.61 nM | 1.22 nM | 10.9 nM |
| O=C(Nc1cn(CC(=O)N2C[C@H]3CN(CC4CCN(C(=O)OCc5ccccc5)CC4)C[C@H]3C2)nc1-c1cc(Cl)ccc1OC(F)F)c1cnn2cccnc12 [Example 17, benzyl 4-[[(3aR,6aS)-5-[2-[3-[5-chloro-2-(difluoromethoxy)phenyl]-4-(pyrazolo[1,5-a]pyrimidine-3-carbonylamino)pyrazol-1-yl]acetyl]-1,3,3a,4,6,6a-hexahydropyrrolo[3,4-c]pyrrol-2-yl]methyl]piperidine-1-carboxylate] |  | 0.71 nM | 0.85 nM | 80.9 nM |
| CN1C[C@@H]2[C@H](C1)[C@H](CO)N(C(=O)Cn1cc(NC(=O)c3cnn4cccnc34)c(-c3cc(Cl)ccc3OC(F)F)n1)[C@@H]2c1ccccc1 [Example 37, N-[1-[2-[(3aS,4S,6R,6aR)-6-(hydroxymethyl)-2-methyl-4-phenyl-1,3,3a,4,6,6a-hexahydropyrrolo[3,4-c]pyrrol-5-yl]-2-oxo-ethyl]-3-[5-chloro-2-(difluoromethoxy)phenyl]pyrazol-4-yl]pyrazolo[1,5-a]pyrimidine-3-carboxamide] |  | 1.1 nM | 0.78 nM | 11.8 nM |
| CN(C)C[C@@H]1CCCN(C(=O)Cn2cc(NC(=O)c3c(N)nn4cccnc34)c(-c3cc(Cl)ccc3OC(F)F)n2)C1 [Example 82, 2-amino-N-[3-[5-chloro-2-(difluoromethoxy)phenyl]-1-[2-[(3S)-3-[(dimethylamino)methyl]-1-piperidyl]-2-oxo-ethyl]pyrazol-4-yl]pyrazolo[1,5-a]pyrimidine-3-carboxamide] |  | 1.17 nM | 0.53 nM | 8.7 nM |
| CN1CCN(CCCN2CCC(n3cc(NC(=O)c4c(N)nn5cccnc45)c(-c4cc(Cl)ccc4OC(F)F)n3)CC2)C1=O [Example 164, 2-amino-N-[3-[5-chloro-2-(difluoromethoxy)phenyl]-1-[1-[3-(3-methyl-2-oxo-imidazolidin-1-yl)propyl]-4-piperidyl]pyrazol-4-yl]pyrazolo[1,5-a]pyrimidine-3-carboxamide] |  | 0.44 nM | 0.06 nM | 5.6 nM |
| O=C(Nc1sc(-c2ccc(CN3CC(F)(F)C3)cc2)nc1-c1cc(Cl)ccc1OC(F)F)c1cnn2cccnc12 [Example 257, N-[4-[5-chloro-2-(difluoromethoxy)phenyl]-2-[4-[(3,3-difluoroazetidin-1-yl)methyl]phenyl]thiazol-5-yl]pyrazolo[1,5-a]pyrimidine-3-carboxamide] |  | 2.93 nM | 2.1 nM | 1000 nM |
| O=C(Nc1cn(CC(=O)N2CCC[C@H]2C(O)CO)nc1-c1cc(Cl)ccc1OC(F)F)c1cnn2cccnc12 (stereo partly drawn) [Example 267, N-[3-[5-chloro-2-(difluoromethoxy)phenyl]-1-[2-[(2S)-2-(1,2-dihydroxyethyl)pyrrolidin-1-yl]-2-oxo-ethyl]pyrazol-4-yl]pyrazolo[1,5-a]pyrimidine-3-carboxamide] |  | 0.66 nM | 0.62 nM | 35.8 nM |
| COCCN(C)C1CCN(C(=O)Cn2cc(NC(=O)c3c(N)nn4cccnc34)c(-c3cc(Cl)ccc3OC(F)F)n2)CC1 [Example 141, 2-amino-N-[3-[5-chloro-2-(difluoromethoxy)phenyl]-1-[2-[4-[2-methoxy-ethyl(methyl)amino]-1-piperidyl]-2-oxo-ethyl]pyrazol-4-yl]pyrazolo[1,5-a]pyrimidine-3-carboxamide] |  | 0.68 nM | 0.59 nM | 15 nM |
| CNC(=O)CCCN1CCC(n2cc(NC(=O)c3cnn4cccnc34)c(-c3cc(Cl)ccc3OC(F)F)n2)CC1 [Example 168, N-[3-[5-chloro-2-(difluoromethoxy)phenyl]-1-[1-[4-(methylamino)-4-oxo-butyl]-4-piperidyl]pyrazol-4-yl]pyrazolo[1,5-a]pyrimidine-3-carboxamide] |  | 1.47 nM | 0.29 nM | 7.7 nM |
| CCCCN(C)C1CCN(c2nc(-c3cc(Cl)ccc3OC(F)F)c(NC(=O)c3cnn4cccnc34)s2)CC1 [Example 199, N-[2-[4-[butyl(methyl)amino]-1-piperidyl]-4-[5-chloro-2-(difluoromethoxy)phenyl]thiazol-5-yl]pyrazolo[1,5-a]pyrimidine-3-carboxamide] |  | 1.22 nM | 1.07 nM | 7.3 nM |
| Nc1nn2cccnc2c1C(=O)Nc1cn(C2CCN(Cc3ccccc3)CC2)nc1-c1cc(Cl)ccc1OC(F)F [Example 178, 2-amino-N-[1-(1-benzyl-4-piperidyl)-3-[5-chloro-2-(difluoromethoxy)phenyl]pyrazol-4-yl]pyrazolo[1,5-a]pyrimidine-3-carboxamide] |  | 1.23 nM | 0.43 nM | 83.9 nM |
| CN(C)CCC1CCN(c2nc(-c3cc(Cl)ccc3OC(F)F)c(NC(=O)c3cnn4cccnc34)s2)CC1 [Example 191, N-[4-[5-chloro-2-(difluoromethoxy)phenyl]-2-[4-[2-(dimethylamino)ethyl]-1-piperidyl]thiazol-5-yl]pyrazolo[1,5-a]pyrimidine-3-carboxamide] |  | 2.93 nM | 2.92 nM | 10.5 nM |
| O=C(Nc1cn(CC(=O)N2C[C@H]3CN(CCCO)C[C@H]3C2)nc1-c1cc(Cl)ccc1OC(F)F)c1cnn2cccnc12 [Example 14, N-[1-[2-[(3aR,6aS)-2-(3-hydroxypropyl)-1,3,3a,4,6,6a-hexahydropyrrolo[3,4-c]pyrrol-5-yl]-2-oxo-ethyl]-3-[5-chloro-2-(difluoromethoxy)phenyl]pyrazol-4-yl]pyrazolo[1,5-a]pyrimidine-3-carboxamide] |  | 1.14 nM | 1.13 nM | 335 nM |
| NC(=O)CCCN1CCC(n2cc(NC(=O)c3cnn4cccnc34)c(-c3cc(Cl)ccc3OC(F)F)n2)CC1 [Example 170, N-[1-[1-(4-amino-4-oxo-butyl)-4-piperidyl]-3-[5-chloro-2-(difluoromethoxy)phenyl]pyrazol-4-yl]pyrazolo[1,5-a]pyrimidine-3-carboxamide] |  | 1.67 nM | 0.25 nM | 11.4 nM |
